One may read the IC50 as the concentration at which inhibition is half-maximal.

Common to all, as to type: functional, cell-based
The subject of one test is HCT-116. The experiment in a line: Antiproliferative activity against human HCT-116 cells assessed as inhibition of cell growth measured after 48 hrs by CCK-8 assay. Particulars: HCT-116, 48 h. (Tetrazolium assays rely on reduction of a dye to a coloured formazan, in cell work by metabolically active cells.)
The next test has as its system HT-29. Put plainly: Antiproliferative activity against human HT-29 cells assessed as inhibition of cell growth measured after 48 hrs by CCK-8 assay. The following applies: HT-29, 48 h.
The next test deals with HepG2. Put plainly: Antiproliferative activity against human HepG2 cells assessed as inhibition of cell growth measured after 48 hrs by CCK-8 assay. The following applies: HepG2, 48 h.
A further test deals with MCF7. Put plainly: Antiproliferative activity against human MCF7 cells assessed as inhibition of cell growth measured after 48 hrs by CCK-8 assay. The following applies: MCF7, 48 h.
For the next test, the system named is Bel-7402. The experiment in a line: Antiproliferative activity against human Bel-7402 cells assessed as inhibition of cell growth measured after 48 hrs by CCK-8 assay. The following applies: Bel-7402, 48 h.
The next test has as its system KYSE-30. Put plainly: Antiproliferative activity against human KYSE-30 cells expressing luciferase assessed as inhibition of cell growth measured after 48 hrs by CCK-8 assay. The following applies: KYSE-30, 48 h.
A further test concerns SW1990. Put plainly: Antiproliferative activity against human SW1990 cells assessed as inhibition of cell growth measured after 48 hrs by CCK-8 assay. Particulars: SW1990, 48 h.
The test system of another test is AGS. The experiment in a line: Antiproliferative activity against human AGS cells assessed as inhibition of cell growth measured after 48 hrs by CCK-8 assay.

For the compound `CCOC(=O)/C=C/c1ccc2c(c1)O[C@@H](c1cc(OC)c(O)c(OC)c1)[C@H](CO)O2`, the IC50 in the test with HCT-116 and in the test with HT-29 was over 50 µM each time.

Take `COc1cc([C@@H]2Oc3cc(/C=C/c4ccc(NC(C)=O)cc4)ccc3O[C@H]2CO)cc(OC)c1O`: the IC50 with HCT-116 and in the test on HT-29 was over 100 µM each time.

For the compound `COc1cc([C@@H]2Oc3cc(/C=C/c4cc(O)cc(O)c4)ccc3O[C@H]2CN)cc(OC)c1O`, the IC50 in the test on HCT-116 is 27 µM; in the test with HT-29, 14.1 µM.

Regarding `COc1cc([C@@H]2Oc3cc(/C=C/c4cc(O)cc(O)c4)ccc3O[C@H]2CO[C@@H]2O[C@H](CO)[C@@H](O)[C@H](O)[C@H]2O)cc(OC)c1O`, the IC50 with HCT-116 and with HT-29 was over 200 µM throughout.

Consider `COc1cc([C@@H]2Oc3cc(/C=C/c4cc(O)cc(O)c4)ccc3O[C@H]2CNC(=O)S(=O)(=O)c2ccc(C)cc2)cc(OC)c1O`, for which the IC50 was determined as 7.44 µM with HepG2; 6.31 µM in the test on MCF7; 4.63 µM in the test with HCT-116; 6.29 µM with Bel-7402; 17.9 µM in the test on KYSE-30; 5.89 µM in the test with HT-29. Moreover, the IC50 was determined as 9.65 µM with SW1990 and 4.95 µM in the test with AGS.

In the case of `COc1cc([C@@H]2Oc3cc(CCc4cc(O)cc(O)c4)ccc3O[C@H]2CO)cc(OC)c1O`, the IC50 in the test with HCT-116 came out at 49.8 µM; with HT-29 it was 16.4 µM.

As for `COC(=O)c1ccc(/C=C/c2ccc3c(c2)O[C@@H](c2cc(OC)c(O)c(OC)c2)[C@H](CO)O3)cc1`, the IC50 worked out at 21.2 µM in the test on HCT-116 and 10.3 µM in the test with HT-29.

With `COc1cc([C@@H]2Oc3cc(C=O)ccc3O[C@H]2CO)cc(OC)c1O`, the IC50 with HCT-116 and in the test on HT-29 was over 100 µM each time.

Take `OC[C@@H]1Oc2ccc(/C=C/c3cc(O)cc(O)c3)cc2O[C@H]1c1cc(F)c(O)c(F)c1`: the values for the IC50 with HCT-116 and in the test on HT-29 were over 50 µM and 41.4 µM, respectively.

For the compound `COc1cc([C@@H]2Oc3cc(/C=C/c4ccccc4C#N)ccc3O[C@H]2CO)cc(OC)c1O`, the IC50 with HCT-116 came to 12.4 µM; in the test on HT-29 it was 14.8 µM.

As for `COc1cc([C@@H]2Oc3cc(/C=C/c4ccc([N+](=O)[O-])cc4)ccc3O[C@H]2CO)cc(OC)c1O`, the IC50 in the test on HCT-116 turned out to be 7.16 µM; in the test on HT-29, 4.63 µM.

For `COc1cc([C@@H]2Oc3cc(/C=C/c4ccc5ccccc5n4)ccc3O[C@H]2CO)cc(OC)c1O`, the results for the IC50 in the test on HCT-116 and with HT-29 were 8.83 µM and 14.9 µM, respectively.

As for `OC[C@@H]1Oc2ccc(/C=C/c3cc(O)cc(O)c3)cc2O[C@H]1c1ccc(O)cc1`, the values for the IC50 in the test with HCT-116 and in the test with HT-29 were over 50 µM and 24.1 µM, respectively.

With `COc1cc([C@@H]2Oc3cc(/C=C/c4cccc(C#N)c4)ccc3O[C@H]2CO)cc(OC)c1O`, the IC50 was determined as 11.4 µM in the test on HCT-116 and 13.5 µM with HT-29.

As for `COc1cc([C@@H]2Oc3cc(/C=C/c4cc(O)cc(O)c4)ccc3O[C@H]2CNC(=O)c2ccc(C(F)(F)F)cc2)cc(OC)c1O`, the figures for the IC50 in the test with HCT-116 and in the test with HT-29 were 11.6 µM and 8.84 µM, respectively.

On to `COc1cc([C@@H]2Oc3cc(/C=C/c4cc(OC(C)=O)cc(OC(C)=O)c4)ccc3O[C@H]2COC(C)=O)cc(OC)c1OC(C)=O`, for which the results for the IC50 in the test with HCT-116 and in the test with HT-29 were 19.9 µM and 10.4 µM, respectively.

`COc1cc([C@@H]2Oc3cc(/C=C/c4cc(O)cc(O)c4)ccc3O[C@H]2CNC(=O)C(C)C)cc(OC)c1O`: the IC50 in the test with HCT-116 worked out at 33.1 µM; with HT-29 it was 13.9 µM.

For `COc1cc([C@@H]2Oc3cc(/C=C/c4ccc(C(F)(F)F)cc4)ccc3O[C@H]2CO)cc(OC)c1O`, the values for the IC50 in the test on HCT-116 and in the test on HT-29 were 27.2 µM and 25.1 µM, respectively.

On to `COc1cc([C@@H]2Oc3cc(/C=C/c4ccccn4)ccc3O[C@H]2CO)cc(OC)c1O`, for which the figures for the IC50 in the test on HCT-116 and in the test on HT-29 were 17.1 µM and 33 µM, respectively.

As for `OC[C@@H]1Oc2ccc(/C=C/c3cc(O)cc(O)c3)cc2O[C@H]1c1cc(Br)c(O)c(Br)c1`, the values for the IC50 in the test on HCT-116 and in the test on HT-29 were 39.7 µM and 30.5 µM, respectively.

Take `COc1cc([C@@H]2Oc3cc(/C=C/c4cc(O)cc(O)c4)ccc3O[C@H]2CNC(C)=O)cc(OC)c1O`: the IC50 in the test on HCT-116 was 47.7 µM; in the test on HT-29, 8.52 µM.

For the compound `COc1cc([C@@H]2Oc3cc(/C=C/c4ccc(C#N)cc4)ccc3O[C@H]2CO)cc(OC)c1O`, the IC50 in the test on HepG2 amounted to 2.23 µM; with MCF7, 1.21 µM; in the test on HCT-116, 2.02 µM; in the test on Bel-7402, 0.86 µM; in the test on KYSE-30, 2.97 µM; in the test on HT-29, 2.42 µM. For the same compound, the figures for the IC50 with SW1990 and in the test on AGS were 1.52 µM and 0.81 µM, respectively.

As to `COc1cc([C@@H]2Oc3ccccc3O[C@H]2CO)cc(OC)c1O`, the IC50 in the test on HCT-116 and in the test with HT-29 was over 100 µM each time.

In the case of `COc1cc([C@@H]2Oc3cc(/C=C/c4cc(O)cc(O)c4)ccc3O[C@H]2CNC(=O)c2ccc(F)c(F)c2)cc(OC)c1O`, the IC50 in the test on HCT-116 was determined as 14.2 µM; with HT-29, 15.6 µM.

Turning to `COc1cc([C@@H]2Oc3cc(-c4ccccc4)ccc3O[C@H]2CO)cc(OC)c1O`, the IC50 amounted to 16.7 µM with HCT-116 and 19.1 µM in the test with HT-29.

Turning to `CCCCCCCCCCCCC(=O)NC[C@@H]1Oc2ccc(/C=C/c3cc(O)cc(O)c3)cc2O[C@H]1c1cc(OC)c(O)c(OC)c1`, the values for the IC50 with HCT-116 and in the test with HT-29 were 14.5 µM and 7.7 µM, respectively.

`COc1ccc(C(=O)NC[C@@H]2Oc3ccc(/C=C/c4cc(O)cc(O)c4)cc3O[C@H]2c2cc(OC)c(O)c(OC)c2)cc1`: the IC50 stood at 15.9 µM in the test with HCT-116 and 16.1 µM in the test with HT-29.

With `COc1cc([C@@H]2Oc3cc(/C=C/c4ccccc4)ccc3O[C@H]2CO)cc(OC)c1O`, the IC50 is 12.4 µM in the test with HCT-116 and 9.14 µM with HT-29.

Take `COc1cc([C@@H]2Oc3cc(/C=C/c4cc(O)cc(O)c4)ccc3O[C@H]2CNC(=O)c2ccccc2)cc(OC)c1O`: the IC50 with HCT-116 amounted to 15.9 µM; in the test with HT-29, 19.6 µM.

For `COc1cc([C@@H]2Oc3cc(/C=C/c4ccsc4)ccc3O[C@H]2CO)cc(OC)c1O`, the results for the IC50 with HCT-116 and in the test on HT-29 were 42.2 µM and 22.9 µM, respectively.

Take `COc1cc([C@@H]2Oc3cc(/C=C/c4cc(O)cc(O)c4)ccc3O[C@H]2CNC(=O)c2ccc(F)cc2)cc(OC)c1O`: the figures for the IC50 in the test on HCT-116 and in the test on HT-29 were 16.8 µM and 7.9 µM, respectively.

For `COc1cc([C@@H]2Oc3cc(/C=C/c4cc(OC(C)=O)cc(OC(C)=O)c4)ccc3O[C@H]2CO)cc(OC)c1OC(C)=O`, the IC50 in the test on HCT-116 was found to be 30.9 µM; in the test with HT-29, 7.92 µM.

For the compound `COc1cc([C@@H]2Oc3cc(/C=C/c4ccc(I)cc4)ccc3O[C@H]2CO)cc(OC)c1O`, the IC50 with HCT-116 came to 28.3 µM; with HT-29, 25 µM.

Regarding `COc1cc([C@@H]2Oc3cc(/C=C/c4cc(O)cc(O)c4)ccc3O[C@H]2CO[C@@H]2O[C@H](CO)[C@H](O)[C@H](O)[C@H]2O)cc(OC)c1O`, the IC50 in the test on HCT-116 and in the test on HT-29 was over 200 µM in each case.

Turning to `OC[C@@H]1Oc2ccc(/C=C/c3cc(O)cc(O)c3)cc2O[C@H]1c1cc(Cl)c(O)c(Cl)c1`, the IC50 with HCT-116 was over 50 µM; with HT-29, 55.3 µM.

As for `COc1cc([C@@H]2Oc3cc(/C=C/c4cc(O)cc(O)c4)ccc3O[C@H]2CNC(=O)c2cc(F)c(F)c(F)c2)cc(OC)c1O`, the values for the IC50 with HCT-116 and in the test on HT-29 were 12.3 µM and 7.08 µM, respectively.

With `COc1cc([C@@H]2Oc3cc(/C=C/c4cc(O)cc(O)c4)ccc3O[C@H]2CO)cc(OC)c1O`, the IC50 in the test on HepG2 is 39 µM; with MCF7, 45.3 µM; in the test with HCT-116 it was 20 µM; in the test with Bel-7402 it was 64.9 µM; in the test on KYSE-30 it was 61.5 µM; in the test with HT-29, 8.36 µM. In addition, the results for the IC50 in the test with SW1990 and in the test on AGS were 28.3 µM and 38.9 µM, respectively.

Regarding `COc1cc(/C=C/c2ccc3c(c2)O[C@@H](c2cc(OC)c(O)c(OC)c2)[C@H](CO)O3)cc(OC)c1`, the IC50 in the test with HCT-116 is 16 µM; in the test with HT-29, 14 µM.

As for `COc1cc([C@@H]2Oc3cc(/C=C/c4cc(O)cc(O)c4)ccc3O[C@H]2CNC(=O)S(C)(=O)=O)cc(OC)c1O`, the IC50 with HCT-116 came to 29.5 µM; with HT-29, 16.5 µM.

`COc1cc(C2Oc3cc(/C=C/c4nc(C)c5ccccc5n4)ccc3OC2CO)cc(OC)c1O` (single isomer, unassigned): the IC50 stood at 3.86 µM in the test on HCT-116 and 4.4 µM with HT-29.

Source of the values: ChEMBL document CHEMBL5247662, “Design, syntheses and biological evaluation of natural product aiphanol derivatives and analogues: Discovery of potent anticancer agents” (Bioorg Med Chem Lett, 2023).
